In article PMC6143625, “A high throughput screen for next-generation leads targeting malaria parasite transmission” (Nature Communications, 2018):

Tests used:
[1] = system: P. falciparum stage V male gametocytes (male gamete formation); experiment: P. falciparum dual gamete formation assay (Pf DGFA), male readout (exflagellation), 48 h carry-over format; type: cell-based, Plasmodium falciparum NF54; conditions: primary screen, 2 uM, 48 h incubation, single replicate
[2] = system: P. falciparum stage V female gametocytes (female gamete formation); experiment: P. falciparum dual gamete formation assay (Pf DGFA), female readout (Pfs25 expression), 48 h carry-over format; type: cell-based, Plasmodium falciparum NF54; conditions: primary screen, 2 uM, 48 h incubation, single replicate

SMILES	%Inhibition Male @2uM [1]	%Inhibition Female @2uM [2]
CN(C)Cc1nnc(C2CCN(c3ncccn3)CC2)n1C1CC1 [DDD01250187]	31.65%	<30%
CCc1ccccc1C(=O)N1C[C@@H](CN2CCOCC2)[C@@H](CO)C1 [DDD01250732]	143.16%	<30%
O=C(c1ccccn1)N1C[C@H]2CC[C@@H](C1)N(C(=O)CCC1CCCC1)C2 [DDD01250927]	61.83%	<30%
O=C(c1ccccc1)N1C[C@H]2CC[C@@H](C1)N(Cc1cc(F)ccc1Cl)C2 [DDD01251068]	176.84%	<30%
Cc1oc(-c2ccoc2)nc1CN1CCC[C@H]1CO [DDD01251548]	131.44%	<30%
CN(C)c1nccnc1N1CC[C@@]2(O)CCNC[C@H]2C1 [DDD01251755]	<30%	48.40%
COc1ccc(CN2CCC3(CCCNC3)C2)cc1Cn1cccn1 (stereo not shown) [DDD01251771]	126.32%	<30%
CN(C)C(C(=O)N1CC(Oc2ccccc2F)C1)c1ccc(F)cc1 (stereo not shown) [DDD01251854]	<30%	43.98%
Cc1ocnc1C(=O)N1CCC(c2nccn2Cc2ccncc2)CC1 [DDD01252089]	78.03%	<30%
CN(C)c1ccccc1C(=O)N1CCOC2(CNCCOC2)C1 (stereo not shown) [DDD01252114]	137.91%	<30%
COc1cccc2c1OCC(C(=O)N1CCN(C3CCCC3)C(=O)C1)C2 (stereo not shown) [DDD01252180]	176.84%	<30%
COc1ccc(-c2cc(CNc3ncnc4c3CCNCC4)no2)cc1 [DDD01252258]	<30%	36.22%
CN(C)c1nc2c(c(N(C)C)n1)CCN(C(=O)CN1C[C@H]3CC[C@@H]1C3)C2 [DDD01252415]	<30%	30.39%
Cc1c(NCc2cccnc2)cccc1C(=O)N1CCC(N(C)C)C1 (stereo not shown) [DDD01252445]	39.91%	<30%
c1ccn2c(C3CCCN(c4ncnc5c4CCNC5)C3)nnc2c1 (stereo not shown) [DDD01252518]	<30%	33.03%
O=C(c1cccc(S(=O)(=O)NCCc2ccccn2)c1)N1CCOCC1 [DDD01252530]	176.84%	<30%
CN(C)Cc1nnc(C2CCCN(Cc3ccc(Cl)s3)C2)n1C (stereo not shown) [DDD01252876]	184.62%	<30%
Cc1cc(CC(=O)N2CCN(CC(C)C)[C@@H]3CS(=O)(=O)C[C@@H]32)ccc1F [DDD01253102]	30.33%	<30%
Cc1ccc(-c2nc(CNC(C)CCO)[nH]c2-c2ccccn2)cc1 (stereo not shown) [DDD01253542]	59.22%	47.40%
CN1CC2(CCN(C(=O)c3ccc(=O)n(C)c3)CC2)CC1=O [DDD01253564]	<30%	30.30%
CS(=O)(=O)N1C[C@H]2CC[C@@H](C1)N(C(=O)CCn1cnc3ccccc31)C2 [DDD01253654]	35.49%	<30%
Cc1cc(NCc2ccc(O)cc2)n2nc(C)cc2n1 [DDD01253811]	<30%	99.46%
CC(C)OC(=O)N1CCC(Cc2cccc(C(N)=O)c2)C1 (stereo not shown) [DDD01254183]	132.02%	<30%
CSc1ccc(C(=O)N2CCCC(Nc3ccc(F)cc3)C2)cc1 (stereo not shown) [DDD01254674]	162.04%	<30%

SMILES	%Inhibition Male @2uM [1]	%Inhibition Female @2uM [2]
Cc1oc(-c2ccoc2)nc1CN1CCCCC1CCc1ccccc1 (stereo not shown) [DDD01254868]	143.16%	<30%
O=C(CSc1ccncc1)N1CCC2(CC1)c1ccccc1CC2O (stereo not shown) [DDD01255239]	143.16%	<30%
CN(Cc1nccn1C)C1CCCN(CCCc2ccccc2)C1 (stereo not shown) [DDD01255359]	61.22%	<30%
CCc1nnc(CNC(=O)CCN2CCN(c3cccc(C)c3)CC2)s1 [DDD01255634]	133.78%	<30%
Cc1ccc(CN2CCN(C(=O)c3ccc(CO)cc3)C(C)C2=O)cc1 (stereo not shown) [DDD01255654]	<30%	38.25%
COC(=O)C1CCN(C(=O)c2cccc(NS(C)(=O)=O)c2C)CC1 [DDD01255952]	126.32%	<30%
COc1cccc2c1OCC(C(=O)N1CCC(NS(C)(=O)=O)CC1)C2 (stereo not shown) [DDD01255971]	160.00%	<30%
Cc1ccccc1C(=O)Nc1ccc(OC2CCN(C)CC2)cc1 [DDD01256105]	177.06%	<30%
Cc1cnn(CCCN2C(=O)CCc3ccccc32)c1 [DDD01256166]	31.82%	<30%
Cc1ccc(CN2CCCC(c3nnc(CN4CCCC4)n3C)C2)s1 (stereo not shown) [DDD01256510]	109.47%	<30%
COCCN(C)CCN1CC2(CCN(C3CCOCC3)CC2)OC1=O [DDD01256592]	44.84%	<30%
O=C(O)CCc1cc2n(n1)CCCN(C(=O)c1cc3ccccc3s1)C2 [DDD01256606]	<30%	30.77%
CC(C)(CNC1CCCN(Cc2ccccn2)C1)CN1CCOCC1 (stereo not shown) [DDD01256674]	<30%	31.10%
Cc1cc(C(=O)N2CCC(c3nccn3Cc3ccccn3)CC2)no1 [DDD01256728]	88.77%	<30%
CCOCC(=O)N1CCC(c2nccn2CC2CC2)CC1 [DDD01256942]	104.28%	<30%
CN(C)C(=O)N1C[C@H]2CC[C@@H](C1)N(C/C=C/c1ccc(F)cc1)C2 [DDD01256992]	<30%	32.94%
COc1ccc(C(=O)N2CCOC3(CNCCOC3)C2)c(OC)n1 (stereo not shown) [DDD01257050]	126.32%	<30%
CN(Cc1ccccc1CN1CCCC1)C(=O)c1c[nH]c(=O)[nH]1 [DDD01257093]	<30%	34.04%
Cc1ccc(F)cc1CC(=O)N(CCN1CCOCC1)Cc1ccco1 [DDD01257151]	<30%	36.90%
O=C1N(CCC2CCCCC2)CCCC1(O)CNCCc1ccccc1 (stereo not shown) [DDD01257222]	147.75%	<30%
CCn1cc(CN(C)C(=O)c2cccc(CCC(C)(C)O)c2)cn1 [DDD01257573]	<30%	32.19%
CN(CCO)Cc1nnc(C2CCN(C3CCCCC3)CC2)n1C [DDD01257771]	<30%	30.00%
COc1ccc(C(=O)C2CCCN(Cc3ccncc3)C2)c(OC)c1 (stereo not shown) [DDD01257881]	<30%	31.13%
